Data as given in publication PMC10121968, “Fosgonimeton, a Novel Positive Modulator of the HGF/MET System, Promotes Neurotrophic and Procognitive Effects in Models of Dementia” (Neurotherapeutics, 2022).
Non-standard residues stand in square brackets, D forms with d. Residues, ends and D or L forms follow the SMILES beside them. *: point of attachment. Hexanoyl = CCCCCC(=O)*; Ahx = NCCCCCC(=O)O

Assays:
[1] = test system: primary rat hippocampal neurons; test: Synaptogenesis assay (synaptobrevin-II staining); assay type: cell-based; settings: 8 days, vs vehicle
Protocol: On day 0, rat hippocampal neurons from newborn pups were isolated and cultured in brain neuronal culture medium (neurobasal medium supplemented with 5% FBS, 2% B-27 supplement, and 0.003% gentamycin) at 37 °C under 5% CO2. At 1 day in vitro (DIV1), cells were transferred to a poly-D-lysine–coated 24-well plate at approximately 10,000 cells/well. Cells were then grown in […] of serum-free medium and treated with the following: 0.1% dimethyl sulfoxide (DMSO; vehicle), 10 nM dihydrotestosterone (positive control), 10 nM fosgo-AM, 1 nM fosgo-AM, 5 ng/ml HGF, or 5 ng/ml HGF + 1 nM fosgo-AM. All treatments contained a final concentration of 0.1% DMSO. For the neurite outgrowth assay, treatment media were refreshed on DIV3, and cells were processed for analysis on DIV4. For the synaptogenesis assay, treatment media were refreshed on DIV3 and DIV6, and cells were processed for analysis on DIV8. Processing for both the neurite outgrowth and the synaptogenesis assays was performed as follows: media were removed, and cells were fixed with 100% methanol for 20 min at RT before methanol was aspirated and each well was washed twice with Dulbecco’s phosphate-buffered saline (DPBS). Cells were permeabilized using 0.02% […] (ThermoFisher, Waltham, Massachusetts) in DPBS for 2 min at RT without shaking, and plates were blocked with 5% bovine serum albumin (BSA) in DPBS for 1 h at RT. […] Ten images of single cells from a total of 2 assays were analyzed using NeuroJ plug-in for ImageJ to assess neurite outgrowth, as neurite length and the number of branches per neuron were counted for each cell. For the synaptogenesis assay, synaptic count (number of synapses) and synaptic strength (relative abundance of presynaptic vesicles per synapse as measured by synaptobrevin-II fluorescence intensity) were quantified for each cell. Data were assessed for normality (Shapiro–Wilk) and homoscedasticity (Brown-Forsythe). […]

MDCK cells = test: MDCK cell scatter behavior assay; assay type: cell-based, canine; settings: HGF 10 ng/mL + fosgo-AM 10 pM, 100 pM and 1 nM, 24 h, vs HGF alone
Protocol: Madin-Darby canine kidney (MDCK, ATCC CCL-34) cells were grown at 37 °C, 5% CO2 in Eagle’s Minimum Essential Medium (EMEM) + 10% FBS in T-75 flasks until 80% confluent. Cells were then plated at 1400 cells/well in black-walled, clear-bottom 96-well plates and grown at 37 °C under 5% CO2 for 24 h. Growth media were replaced by serum-free media for 2 h before treatment. Treatments containing HGF and fosgo-AM were made in serum-free media and applied in quintuplicates for 24 h at 37 °C under 5% CO2. Cells were then fixed in chilled 100% EtOH at 4 °C for 20 min and then stained with wheat germ agglutinin conjugated to CF488 (WGA488, Biotium, 29,022–1, Fremont, California) at […] in phosphate-buffered saline (PBS) for 30 min at RT to visualize whole-cell surfaces. Cultures were then imaged with an iCys instrument (iCyte, Thor Labs, Newton, New Jersey) and analyzed with the ImageJ (National Institutes of Health) particle count feature. Scattering behavior was quantified by normalizing particle counts against total stained area. […] Data were assessed for normality (Shapiro–Wilk) and homoscedasticity (Brown-Forsythe). The statistical difference from HGF alone was determined by one-way ANOVA with Dunnett’s multiple comparison post-test with an alpha value of 0.05 (Prism, GraphPad).

ERK (Thr202/Tyr204) = test: Phospho-ERK HTRF assay in HEK293 cells; assay type: cell-based, human; settings: HEK293, subthreshold HGF 0.1 ng/mL + fosgo-AM 1 µM, vs HGF alone
From the text: To determine phosphoactivation status of the intracellular signaling molecules ERK (Thr202/Tyr204) or AKT (Ser473), we used homogenous time-resolved fluorescence (HTRF) kits to assess phosphorylation status based on the energy transfer between donor and acceptor phospho-ERK (pERK) or phospho-AKT (pAKT) antibodies. HTRF kit processing for pERK (Phospho-ERK [Thr202/Tyr204] cellular Advanced kit, #64AERPEG, Cisbio, Codolet, France) and pAKT (Phospho-AKT [Ser473] cellular kit, #64AKSPEG, Cisbio, Codolet, France) were carried out per manufacturer instructions. In brief, HEK293 cells were grown at 37 °C, 5% CO2 in DMEM + 10% FBS until approximately 80% confluent. Cells were seeded in polystyrene-treated 96-well cell culture plates at approximately 50,000 cells/well and cultured overnight in 50 µL serum-free growth media. […] Fluorescence emission at 2 different wavelengths (665 nm and 620 nm) were measured on an Envision plate reader (PerkinElmer, Waltham, Massachusetts), and the HTRF ratio of the acceptor and donor emission signals for each well was calculated as follows: HTRF ratio = (665 nm/620 nm) × 10,000. […] Data were assessed for normality (Shapiro–Wilk) and homoscedasticity (Brown-Forsythe). Statistical significance was determined by one-way analysis of variance (ANOVA) with Tukey’s multiple comparison post-test. […]

SMILES: CCCCCC(=O)N[C@@H](Cc1ccc(O)cc1)C(=O)N[C@H](C(=O)NCCCCCC(N)=O)[C@@H](C)CC [fosgo-AM] (Hexanoyl-Tyr-Ile-[Ahx]-NH2)
- number of synapses (synaptic count) ([1]; 1 nM fosgo-AM + 5 ng/mL HGF): significantly increased the number of synapses
- synaptobrevin-II immunofluorescence intensity (synaptic strength) ([1]; 1 nM fosgo-AM + 5 ng/mL HGF): significantly enhanced immunofluorescence intensity of synaptobrevin-II
- synaptobrevin-II immunofluorescence intensity (synaptic strength) ([1]; 1 nM): significantly enhanced immunofluorescence intensity of synaptobrevin-II
- cell scattering behavior (MDCK cells): significant cell scattering
- pERK levels (ERK (Thr202/Tyr204)): significant increase
